# Experimental data as given in PubChem BioAssay (NCI).
#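 How tested: cells in 96-well plates exposed to compound for 48 hours at five concentrations. TGI: concentration producing complete growth inhibition.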
# What was measured:
# Test in all cases: NCI tumour cell line growth inhibition, 48 h
# [1] = test system: SF-268 CNS
# [2] = test system: HOP-18 NSCLC
# [3] = test system: HCT-116 colon
# [4] = test system: MOLT-4 leukemia
# [5] = test system: SK-MEL-5 melanoma
# [6] = test system: NCI-H23 lung
# [7] = test system: P388 leukemia
# [8] = test system: OVCAR-8 ovarian
# [9] = test system: KM12 colon
# [10] = test system: OVCAR-4 ovarian
# [11] = test system: COLO 205 colon
# [12] = test system: SN12C renal
# [13] = test system: IGROV1 ovarian
# [14] = test system: NCI-H226 lung
# [15] = test system: SW-620 colon
# [16] = test system: SN12K1 renal
# [17] = test system: RPMI-8226 leukemia
# [18] = test system: OVCAR-3 ovarian
# [19] = test system: HCC-2998 colon
# [20] = test system: K-562 leukemia
# [21] = test system: HOP-92 NSCLC
# [22] = test system: MALME-3M melanoma
# [23] = test system: HL-60(TB) leukemia
# [24] = test system: SNB-78 CNS
# [25] = test system: SK-OV-3 ovarian
# [26] = test system: P388/ADR leukemia
# [27] = test system: U251 CNS
# [28] = test system: A498 renal
# [29] = test system: NCI-H460 lung
# [30] = test system: UACC-62 melanoma
# [31] = test system: HCT-15 colon
# [32] = test system: KM20L2 colon
# [33] = test system: DMS 273 small cell lung
# [34] = test system: NCI/ADR-RES ovarian
# [35] = test system: SNB-75 CNS
# [36] = test system: DLD-1 colon
# [37] = test system: HOP-62 NSCLC
# [38] = test system: SNB-19 CNS
# [39] = test system: UO-31 renal
# [40] = test system: CAKI-1 renal
# [41] = test system: MCF7 breast
# [42] = test system: CCRF-CEM leukemia
# [43] = test system: SF-295 CNS
# [44] = test system: EKVX NSCLC
# [45] = test system: A549 NSCLC
# [46] = test system: SK-MEL-28 melanoma
# [47] = test system: NCI-H522 lung
# [48] = test system: SF-539 CNS
# [49] = test system: RXF 393 renal
# [50] = test system: LOX IMVI melanoma
# [51] = test system: M19-MEL melanoma
# [52] = test system: SK-MEL-2 melanoma
# [53] = test system: HT29 colon
# [54] = test system: OVCAR-5 ovarian
# [55] = test system: UACC-257 melanoma
# [56] = test system: XF 498 CNS
# [57] = test system: DMS 114 small cell lung
compound,measurement,setting,value
N#C/C(=C\c1ccncc1)c1csc2ccccc12,TGI,[1],82.5 µM
same,TGI,[2],99.7 µM
same,TGI,[3],33.4 µM
same,TGI,[4],43.1 µM
same,TGI,[5],33.2 µM
same,TGI,[6],> 79.8 µM
same,TGI,[7],39.2 µM
same,TGI,[8],> 85.1 µM
same,TGI,[9],37.8 µM
same,TGI,[10],> 100 µM
same,TGI,[11],35.9 µM
same,TGI,[12],> 74.8 µM
same,TGI,[13],97.4 µM
same,TGI,[14],> 77.1 µM
same,TGI,[15],67.7 µM
same,TGI,[16],> 77.7 µM
same,TGI,[17],52.3 µM
same,TGI,[18],42.9 µM
same,TGI,[19],35.8 µM
same,TGI,[20],50.8 µM
same,TGI,[21],51.7 µM
same,TGI,[22],> 96.2 µM
same,TGI,[23],35.5 µM
same,TGI,[24],73.8 µM
same,TGI,[25],> 73.1 µM
same,TGI,[26],25.2 µM
same,TGI,[27],61.9 µM
same,TGI,[28],66.6 µM
same,TGI,[29],> 69 µM
same,TGI,[30],> 76.4 µM
same,TGI,[31],77.4 µM
same,TGI,[32],54.6 µM
same,TGI,[33],73.6 µM
same,TGI,[34],61.8 µM
same,TGI,[35],78.5 µM
same,TGI,[36],96.9 µM
same,TGI,[37],63.3 µM
same,TGI,[38],69.6 µM
same,TGI,[39],> 83.2 µM
same,TGI,[40],> 88 µM
same,TGI,[41],> 96.7 µM
same,TGI,[42],55.8 µM
same,TGI,[43],> 100 µM
same,TGI,[44],> 100 µM
same,TGI,[45],> 100 µM
same,TGI,[46],> 100 µM
same,TGI,[47],41.9 µM
same,TGI,[48],48.9 µM
same,TGI,[49],> 83.1 µM
same,TGI,[50],47.9 µM
same,TGI,[51],> 91.2 µM
same,TGI,[52],42.2 µM
same,TGI,[53],48.2 µM
same,TGI,[54],> 89.6 µM
same,TGI,[55],> 75.3 µM
same,TGI,[56],46.3 µM
OCC#CCNCl,TGI,[1],> 100 µM
same,TGI,[2],> 100 µM
same,TGI,[3],> 100 µM
same,TGI,[4],> 100 µM
same,TGI,[5],> 100 µM
same,TGI,[6],> 100 µM
same,TGI,[7],> 100 µM
same,TGI,[8],> 100 µM
same,TGI,[9],> 100 µM
same,TGI,[10],> 100 µM
same,TGI,[11],> 100 µM
same,TGI,[12],> 100 µM
same,TGI,[13],> 100 µM
same,TGI,[14],> 100 µM
same,TGI,[15],> 100 µM
same,TGI,[16],> 100 µM
same,TGI,[17],> 100 µM
same,TGI,[18],> 100 µM
same,TGI,[19],> 100 µM
same,TGI,[20],> 100 µM
same,TGI,[21],> 100 µM
same,TGI,[22],> 100 µM
same,TGI,[23],> 100 µM
same,TGI,[24],> 100 µM
same,TGI,[25],> 100 µM
same,TGI,[26],> 100 µM
same,TGI,[27],> 100 µM
same,TGI,[28],> 100 µM
same,TGI,[29],> 100 µM
same,TGI,[30],> 100 µM
same,TGI,[31],> 100 µM
same,TGI,[32],> 100 µM
same,TGI,[33],> 100 µM
same,TGI,[34],> 100 µM
same,TGI,[35],> 100 µM
same,TGI,[36],> 100 µM
same,TGI,[37],> 100 µM
same,TGI,[38],> 100 µM
same,TGI,[57],> 100 µM
same,TGI,[39],> 100 µM
same,TGI,[41],> 100 µM
same,TGI,[42],> 100 µM
same,TGI,[43],> 100 µM
same,TGI,[44],> 100 µM
same,TGI,[45],> 100 µM
same,TGI,[46],> 100 µM
same,TGI,[47],> 100 µM
same,TGI,[48],> 100 µM
same,TGI,[49],> 100 µM
same,TGI,[50],> 100 µM
same,TGI,[51],> 100 µM
same,TGI,[52],> 100 µM
same,TGI,[53],> 100 µM
same,TGI,[54],> 100 µM
same,TGI,[55],> 100 µM
same,TGI,[56],> 95.2 µM
